In article PMC4501059, “Responding to the challenge of untreatable gonorrhea: ETX0914, a first-in-class agent with a distinct mechanism-of-action against bacterial Type II topoisomerases” (Scientific Reports, 2015):

What was measured:
in vivo = details: rat, po
[1] = rat, in vivo
[2] = Human plasma protein binding (PPB); details: independent of concentration 1–50 μM
[3] = plasma protein binding, mouse; details: in vitro at 1-50 µM
[4] = Quantitative whole-body autoradiography, tissue distribution of radioactivity; type: in vivo, male pigmented Lister Hood rat
Protocol: Quantitative whole-body autoradiography. The distribution of radioactivity in male, pigmented Lister Hood rat tissues was obtained after a single intravenous infusion over 15 minutes of ^14C-AZD0914 at 25 mg/kg (51 μmol/kg, 5 MBq/kg) using quantitative whole-body autoradiography with phosphor-imaging technology. The potential of this compound and/or its metabolites to bind to melanin-containing tissues and/or to potentially bind covalently to tissues was also evaluated. The rats were sacrificed at 5 minutes, 1 hour, 4 hours, 24 hours, 48 hours, 7 days and 21 days after the end of infusion with enflurane (Efrane®, Abbott Laboratories, USA), and frozen in acetone, cooled to -70 °C with solid CO2. The 7- and 21- day animals could not be quantified as no trace of radioactivity was observed. After removal of limbs and tail, the carcass was embedded, with left lateral side uppermost, in a 2.5% (w/v) aqueous solution of caramellosum natricum and frozen for at least 10 minutes. The animal blocks were stored at -20 °C until sectioning. Sagittal whole-body sections (30 μm) were obtained to include organs and tissues of interest. At sectioning each block was mounted in a Leica CM3600 Cryomacrotome (Leica Microsystems GmbH, Germany) maintained at approximately -20 °C. All sections were dried at -20 °C for at least 1 day prior to exposure on phosphor-imaging plates. Together with two sets of calibration standards, the sections were placed on phosphor-imaging plates, which had been pre-covered with a thin plastic film. The imaging plates were exposed for 1 to 3 days at +4 to +12 °C, enclosed in light tight cassettes in a lead shielding box to protect from environmental radiation. Following exposure, the imaging plates were scanned at a pixel size of 50 μm using FLA-7000 (FujiFilm Sverige AB, Sweden). The tissues and organs of interest were quantified using AIDA 3.5 (Raytest, Germany). The quantification limit was defined as twice the background value of the imaging plate and varied between the plates from 0.23 to 0.33 nmol/g. The various tissues and organs were identified either on the autoradiograms or on the corresponding tissue sections.

[5] = 5 minutes after 25 mg/kg iv infusion
[6] = 1 hour after 25 mg/kg iv infusion
[7] = 4 hours after 25 mg/kg iv infusion

For CC(=O)NC[C@H]1CN(c2ccc(N3CCOCC3)c(F)c2)C(=O)O1 [Linezolid], the AUC (in vivo) was 1900 µM·h, the neutrophil count [1] was “showing suppression” and the reticulocytes count ([1]; 250 mg/kg) was “significant suppression”.

In the case of C[C@@H]1CN2c3c(cc4c(N5C(=O)OC[C@@H]5C)noc4c3F)C[14C]3(C(=O)NC(=O)NC3=O)[C@H]2[C@H](C)O1 [^14C-ETX0914], the “PPB (%free)” value [2] is reported as 17.0 % free, the “PPB (%free)” value [3] is reported as 22.1 %free and the “Total radioactivity: Adrenal cortex” value [4, 5] is reported as 84 nmol/g. The “Total radioactivity: Adrenal medulla” value [4, 5] was 43 nmol/g, the “Total radioactivity: Aortic wall” value [4, 5] was 53 nmol/g and the “Total radioactivity: Bile” value [4, 5] was 1200 nmol/g. The “Total radioactivity: Bone marrow” value [4, 5] was 35 nmol/g, the “Total radioactivity: Brain” value [4, 5] was 0.79 nmol/g and the “Total radioactivity: Choroid & retinal pigment epithelium” value [4, 5] was 16 nmol/g. For the same compound, the “Total radioactivity: Heart blood” value [4, 5] was 27 nmol/g, the “Total radioactivity: Liver” value [4, 5] was 320 nmol/g and the “Total radioactivity: Lung” value [4, 5] was 52 nmol/g. The “Total radioactivity: Lymph node” value [4, 5] was 29 nmol/g, the “Total radioactivity: Myocardium” value [4, 5] was 73 nmol/g and the “Total radioactivity: Renal cortex” value [4, 5] was 170 nmol/g. The “Total radioactivity: Renal medulla (inner)” value (from here on “Total radioactivity … (inner)”) [4, 5] was 70 nmol/g, the “Total radioactivity: Renal medulla (outer)” value (“Total radioactivity … (outer)” below) [4, 5] was 68 nmol/g and the “Total radioactivity: Skeletal muscle” value [4, 5] was 29 nmol/g. The “Total radioactivity: Skin, pigmented” value [4, 5] was 15 nmol/g, the “Total radioactivity: Spinal cord” value [4, 5] was 1.0 nmol/g and the “Total radioactivity: Testis” value [4, 5] was 2.4 nmol/g. The “Total radioactivity: Urine” value [4, 5] was 51 nmol/g, the “Total radioactivity: White fat” value [4, 5] was 6.6 nmol/g and the “Total radioactivity: Adrenal cortex” value [4, 6] was 40 nmol/g. The “Total radioactivity: Adrenal medulla” value [4, 6] was 26 nmol/g, the “Total radioactivity: Aortic wall” value [4, 6] was 58 nmol/g and the “Total radioactivity: Bile” value [4, 6] was 1500 nmol/g. The “Total radioactivity: Bone marrow” value [4, 6] was 20 nmol/g, the “Total radioactivity: Brain” value [4, 6] was 0.72 nmol/g and the “Total radioactivity: Choroid & retinal pigment epithelium” value [4, 6] was 17 nmol/g. The “Total radioactivity: Heart blood” value [4, 6] was 18 nmol/g, the “Total radioactivity: Liver” value [4, 6] was 190 nmol/g and the “Total radioactivity: Lung” value [4, 6] was 31 nmol/g. For the same compound, the “Total radioactivity: Lymph node” value [4, 6] was 23 nmol/g, the “Total radioactivity: Myocardium” value [4, 6] was 42 nmol/g and the “Total radioactivity: Renal cortex” value [4, 6] was 130 nmol/g. For the same compound, the “Total radioactivity … (inner)” value [4, 6] was 32 nmol/g, the “Total radioactivity … (outer)” value [4, 6] was 120 nmol/g and the “Total radioactivity: Skeletal muscle” value [4, 6] was 20 nmol/g. The “Total radioactivity: Skin, pigmented” value [4, 6] was 20 nmol/g, the “Total radioactivity: Spinal cord” value [4, 6] was 1.0 nmol/g and the “Total radioactivity: Testis” value [4, 6] was 5.7 nmol/g. The “Total radioactivity: Urine” value [4, 6] was 400 nmol/g, the “Total radioactivity: White fat” value [4, 6] was 8.9 nmol/g and the “Total radioactivity: Adrenal cortex” value [4, 7] was 8.7 nmol/g. The “Total radioactivity: Adrenal medulla” value [4, 7] was 4.5 nmol/g, the “Total radioactivity: Aortic wall” value [4, 7] was 13 nmol/g and the “Total radioactivity: Bone marrow” value [4, 7] was 4.0 nmol/g. The “Total radioactivity: Choroid & retinal pigment epithelium” value [4, 7] was 8.1 nmol/g, the “Total radioactivity: Heart blood” value [4, 7] was 4.2 nmol/g and the “Total radioactivity: Liver” value [4, 7] was 69 nmol/g. The “Total radioactivity: Lung” value [4, 7] was 6.9 nmol/g, the “Total radioactivity: Lymph node” value [4, 7] was 4.1 nmol/g and the “Total radioactivity: Myocardium” value [4, 7] was 6.9 nmol/g. The “Total radioactivity: Renal cortex” value [4, 7] was 39 nmol/g, the “Total radioactivity … (inner)” value [4, 7] was 8.0 nmol/g and the “Total radioactivity … (outer)” value [4, 7] was 18 nmol/g. For the same compound, the “Total radioactivity: Skeletal muscle” value [4, 7] was 4.2 nmol/g, the “Total radioactivity: Skin, pigmented” value [4, 7] was 3.6 nmol/g and the “Total radioactivity: Spinal cord” value [4, 7] was 0.30 nmol/g. The “Total radioactivity: Testis” value [4, 7] was 2.6 nmol/g, the “Total radioactivity: Urine” value [4, 7] was 100 nmol/g and the “Total radioactivity: Brain” value ([4]; 4 hours after 25 mg/kg iv infusion, BLQ = below limit of quantification (0.24)) was “BLQ^d”. For the same compound, the “Total radioactivity: Liver” value ([4]; 24 hours after 25 mg/kg iv infusion) was 0.35 nmol/g, the “Total radioactivity: Liver” value ([4]; 48 hours after 25 mg/kg iv infusion, BLQ = below limit of quantification (0.24)) was “BLQ” and the “melanin or covalent binding of parent and/or metabolites to tissue” value ([4]; pigmented rat) was “no melanin or covalent binding”. For the same compound, the CNS penetration ([4]; rat, whole-body autoradiography) was “very low CNS penetration”.
